Patent US6403619B1, “Method for controlling cell necrosis or apoptosis” (University of Kentucky Research Foundation, priority 1998, dated 2002)

What was measured:
p53 = settings: high levels of the agent; in the absence of and following genotoxic stress; FIG. 12B
Protocol: Briefly, cells were grown in control or suboptimal niacin media as described in Example 1 above, resulting in cells with normal or low NAD content. The protein of the cells was then extracted and portions of the extract were separated by SDS-polyacrylamide gel electrophoresis (SDS-PAGE) and p53 protein content was determined by immunoblotting (western blotting). […] FIG. 9B compares the relative content of p53 following genotoxic stress caused by the alkylating agent MNNG in cells with a low or normal NAD content.

human skin fibroblasts = assay: Bioconversion of pro-NAD agents to NAD by skin fibroblasts in culture; format: cell-based; settings: FIG. 11
Protocol: A series of experiments were performed to determine the possible classes of pro-NAD agents that may be used for the elevation of skin cell NAD content by topical application. Any compound that can be converted to NAD is referred to here as a “pro-NAD” agent.

Epithelial cells = assay: Necrosis and apoptosis of epithelial cells under MNNG genotoxic stress; format: cell-based
Protocol: Epithelial cells were subjected to genotoxic stress with the alkylating agent N-methyl-N^1-nitro-N-nitrosoguanidine, or “MNNG” as referred to supra and hereafter. Epithelial cells were cultured in the presence of either no MNNG, 10 μg/mL MNNG, or 20 μg/mL of MNNG, in medium containing either 0, 50 μM or 500 μM nicotinamide. Percent necrosis and apoptosis was studied over time, i.e., for 48 hours. […] Nicotinamide is converted to NAD, but as indicated, none was added in the experiments depicted in 17A and 17D.

cells [1] = assay: Survival under oxidative genotoxic stress caused by staurosporin; format: cell-based; settings: 50 μM in medium compared with none; different concentrations of staurosporin; FIG. 19
Protocol: These experiments describe studies on oxidative genotoxic stress, caused by staurosporin. Cells were contacted with different concentrations of staurosporin, and were cultured in medium that either contained no nicotinamide or 50 μM nicotinamide.

cells [2] = assay: DNA integrity following genotoxic stress induced by MNNG; format: cell-based; settings: high levels (500 micromolar) compared with normal levels (50 micromolar), FIG. 12A
Protocol: The DNA repair proficiency as a function of NAD content has been assessed also by a technique called a “comet assay.” In a comet assay (O. Ostling and K. J. Johanson, Biochem. Biophys. Res. Commun. 123: 291 (1984); P. L. Olive and J. P. Banath, Exp. Cell Res. 221: 19 (1995)), cells are plated out after embedding into liquid agarose on a carrier and lysed in situ after formation of an agarose gel. The DNA of the individual cells is then separated in situ in an electric field. Damaged DNA containing strand breaks migrates away from the cell nucleus due to its smaller size and this migration results in an image where the nucleus appears as the head of the comet and the broken DNA appears as tail of the comet. The more degraded the genomic DNA is, the greater the amount of migration-capable DNA and the longer the “comet tail.”

NAD content of skin = assay: Skin NAD content after topical application, hairless mouse model; format: in vivo
Protocol: (§1) Based on evaluation of pro-NAD agents, proof of principle experiments for elevation of skin cell NAD content by topical delivery were performed using a hairless mouse model. In brief, tetradecylnicotinate was used for the initial studies. In the study three daily topical applications of 1% tetradecylnicotinate cream to the back of the animals and no cream were applied to the abdomen. Immediately following the third application, the skin from the back and abdomen were analyzed for NAD content. Test samples of skin were frozen in liquid nitrogen and powdered by mechanical means. NAD content was assessed as described previously (Jacobson, E L, and Jacobson, M K Meth Enzymol 280, 221-230, 1997; Jacobson, E L et al., J Cell Physiol 99, 417-426, 1979). The NAD assay is based on the principle of enzymic cycling between oxidized and reduced states, in which NAD is rate-limiting for a series of amplification reactions. Total protein was assayed by the Bradford assay.
(§2) In another experiment, the effect of the number of daily application of 1% tetradecylnicotinate cream was examined. Again, application was made to the back of the animal and the abdomen of each animal served as control.

[3] = Local vasodilation following topical application of cream (assesses rate of hydrolysis to nicotinate); format: in vivo; settings: for duration of vasodilation / onset of vasodilation: topical application of a cream containing 0.05%
From the text: The next issue considered was the rate of hydrolysis of topically applied pro-NAD agents to nicotinic acid such that conversion to NAD can be completed by the pathway shown in FIG. 11. The rates of hydrolysis of a pro-NAD agent following topical application can be assessed by evaluation of local vasodilation following topical application of a pro-NAD agent. […] Experiments have compared the absence or presence of vasodilation (and the time course of vasodilation when present) for a number of the pro-NAD agents shown in FIG. 13. For example, application of a cream containing 0.05% hexylnicotinate results in vasodilation with onset at approximately 10 minutes and duration of approximately 90 minutes. A similar application of octylnicotinate results in an onset of vasodilation at approximately 15 minutes with duration of 360 minutes. […] These experiments indicate that tetradecylnicotinate is released very slowly following application. Two factors are likely involved in the rate of hydrolysis of topically applied pro-NAD agents, the rate of departure from the stratum corneum and the rate of hydrolysis by esterases present in the epidermal and dermal layers of the skin.

[4] = Octanol/water partition coefficient; format: physicochemical; settings: extrapolated from Po/w values of the shorter esters; FIG. 14
From the text: The first issue considered was the physical-chemical properties of the pro-NAD agents most desirable for topical application. The nicotinic acid molecule may not be optimal because it may be too polar to be effectively delivered to skin cells topically. Molecules that are too polar may not effectively partition into the apolar stratum corneum layer of skin and following passage across the stratum corneum, it would be expected to rapidly enter the systemic circulation. To evaluate the potential of these pro-NAD agents to partition into the stratum corneum, the octanol/water partition coefficients for the methyl, eythl-, butyl-, hexyl-, and octyl-esters of nicotinate were experimentally determined.
The octanol/water partition coefficient was determined by dissolving a known amount of pro-NAD agent in water and then mixing the aqueous compound with a known volume of octanol. After mixing for a period of 1 to 18 hours, aliquots of the water phase were analyzed by HPLC for the amount of remaining pro-NAD agent. The partition coefficient (P) was calculated from the following equation:
log Po/w=log10((Co−C)CVo))
where Co is the initial concentration in water and C is the concentration after partitioning. Vw and Vo represent the volume of water and octanol phases respectively.

[5] = Signs of toxicity after topical application, hairless mouse model; format: in vivo; settings: topical 1% cream, experiments of FIGS. 15 and 16
Protocol: as §1, §2

[6] = test system: Malignant epithelial cells; assay: Doubling of malignant epithelial cell populations under PARP (tankyrase) inhibition; format: cell-based; settings: 0.1 M; after 10 weeks; compared with control grown without it; FIG. 20
Protocol: Malignant epithelial cells were grown in the presence of 0.1 M benzamide, which is known to inhibit all PARPs. The doubling of the cell populations was observed over a period of time, and compared to a control, which was grown in the absence of benzamide.

[7] = varying number of daily applications of 1% cream to the back, FIG. 16

SMILES: NC(=O)c1cccnc1 [nicotinamide]
- p53 levels / p53-signaling response (p53): abnormally high levels of p53
- bioconversion to NAD (human skin fibroblasts): can be bioconverted to NAD
- response (necrosis, apoptosis) to MNNG induced genotoxic shock (Epithelial cells; 500 μM in medium, MNNG 10 or 20 μg/mL, 48 hours, FIGS. 17C and 17F): Normal responses were not established
- involvement in cell death pathways (cellular morphology over time) (Epithelial cells; none, 50 μM or 500 μM in medium, FIGS. 18A-18D): involved in cellular necrosis pathways much more than in apoptosis pathways
- rate of cell death (percentage survival) (cells [1]): rate of cell death is decreased significantly
- DNA integrity (cells [2]): decreased DNA integrity

SMILES: CCCCCCCCCCCCCCOC(=O)c1cccnc1 [tetradecylnicotinate]
- NAD content of skin removed from the abdomen (no cream applied) (NAD content of skin; three daily applications of 1% cream to the back, FIG. 15): not increased
- skin NAD content relative to control animal treated with base cream only (NAD content of skin; three daily topical applications of 1% cream to the back, back skin, FIG. 15): 143%
- NAD content of skin removed from the back (NAD content of skin; [7]): increased as a function of the number of daily applications
- NAD content of the abdomen (control site) (NAD content of skin; [7]): did not increase
- vasodilation ([3]; similar topical application of cream (0.05%)): does not result in vasodilation
- properties for partitioning into the stratum corneum (Po/w predicted by extrapolation) [4]: favorable properties for partitioning into the stratum corneum
- signs of toxicity [5]: in no case were any signs of toxicity observed

SMILES: CCCCCCOC(=O)c1cccnc1 [hexylnicotinate]
- duration of vasodilation [3]: approximately 90 minutes
- onset of vasodilation [3]: approximately 10 minutes

SMILES: CCCCCCCCOC(=O)c1cccnc1 [octylnicotinate]
- duration of vasodilation [3]: 360 min
- onset of vasodilation [3]: approximately 15 minutes

SMILES: CCCCCCCCCCCCCCCCCCOC(=O)c1cccnc1 [octadecylnicotinate]
- properties for partitioning into the stratum corneum (Po/w predicted by extrapolation) [4]: favorable properties for partitioning into the stratum corneum

SMILES: O=C(O)c1cccnc1 [nicotinic acid]
- bioconversion to NAD (human skin fibroblasts): can be bioconverted to NAD

SMILES: NC(=O)c1ccccc1 [benzamide]
- doubling of the cell populations [6]: stopped doubling
